Activity calls are given as the source filed them.
Tests used:
[1] = molecular target: T1, Mannose-6-phosphate isomerase (Homo sapiens, UniProt P34949); experiment: phosphomannose isomerase inhibition – biochemical, fluorescence intensity, confirmation (AID 1535)
T1 sequence (P34949 whole entry): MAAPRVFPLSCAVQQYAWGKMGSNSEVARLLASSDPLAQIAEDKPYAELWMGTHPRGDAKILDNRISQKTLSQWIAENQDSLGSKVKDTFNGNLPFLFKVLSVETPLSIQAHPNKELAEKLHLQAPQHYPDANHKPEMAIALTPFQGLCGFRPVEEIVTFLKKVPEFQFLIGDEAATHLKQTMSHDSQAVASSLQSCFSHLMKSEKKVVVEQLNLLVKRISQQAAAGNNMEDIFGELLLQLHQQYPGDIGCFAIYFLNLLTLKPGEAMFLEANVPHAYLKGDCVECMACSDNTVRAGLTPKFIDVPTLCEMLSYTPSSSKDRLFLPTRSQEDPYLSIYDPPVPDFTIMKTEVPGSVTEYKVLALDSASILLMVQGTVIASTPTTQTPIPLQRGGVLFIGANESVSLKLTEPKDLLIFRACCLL

[2] = molecular target: Phosphomannomutase 2 (Homo sapiens, UniProt O15305); experiment: Counter screen SAR assay for PMM2 inhibitors via a fluorescence intensity assay. [Related pubchem assays (depositor defined):AID1545, AID1574]
[3] = NIH-3T3 fibroblast cytotoxicity, dose response, cytotoxicity control, cell-based, fluorescence, Alamar Blue, secondary assay (AID 2327); format: functional;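 also: NIH-3T3 mouse fibroblasts cultured with fluconazole at 8 µg/mL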
[4] = molecular target: T2, Serine/threonine-protein phosphatase (Candida dubliniensis (strain CD36 / CBS 7987 / NCPF 3949 / NRRLY-17841) (Yeast), UniProt B9W6M3); experiment: Fluorescence Cell-Based Secondary Assay to Identify Inhibitors of Calcineurin. [Related pubchem assays (depositor defined):AID1979, AID2007]; format: functional
T2 sequence (B9W6M3 whole entry): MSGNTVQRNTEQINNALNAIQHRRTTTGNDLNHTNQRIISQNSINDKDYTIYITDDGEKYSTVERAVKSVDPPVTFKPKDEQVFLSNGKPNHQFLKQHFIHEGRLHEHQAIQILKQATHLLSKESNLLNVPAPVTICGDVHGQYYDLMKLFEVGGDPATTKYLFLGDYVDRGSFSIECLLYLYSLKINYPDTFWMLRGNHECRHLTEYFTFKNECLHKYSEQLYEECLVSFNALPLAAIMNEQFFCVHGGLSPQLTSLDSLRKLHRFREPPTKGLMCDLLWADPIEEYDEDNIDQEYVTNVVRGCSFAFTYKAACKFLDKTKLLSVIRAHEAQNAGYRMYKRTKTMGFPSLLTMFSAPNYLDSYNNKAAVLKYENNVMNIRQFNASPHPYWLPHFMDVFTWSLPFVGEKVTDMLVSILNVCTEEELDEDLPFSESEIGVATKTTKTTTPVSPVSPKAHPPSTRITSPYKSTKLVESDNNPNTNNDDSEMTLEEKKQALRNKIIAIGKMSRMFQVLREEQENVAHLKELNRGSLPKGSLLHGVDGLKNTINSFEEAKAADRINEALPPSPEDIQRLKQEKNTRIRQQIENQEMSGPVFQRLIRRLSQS

[5] = molecular target: T2, Serine/threonine-protein phosphatase; experiment: blockers of CaCl2-induced CDRE-lacZ signaling – S. cerevisiae, luminescence, secondary, dose response (AID 2388); format: functional, cell-based;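 also: yeast reporter cells carrying a calcineurin-responsive lacZ construct stimulated with calcium chloride; luminescent beta-galactosidase reporter signal in whole cells rather than isolated phosphatase activity; potency for inhibition where a drop in reporter signal means calcineurin blockade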
[6] = Luminescence Cell-Based Dose Retest to Confirm Inhibitors of Cancer Stem Cells. [Related pubchem assays (depositor defined):AID2717, AID2721]; format: functional; conditions: Homo sapiens
[7] = molecular target: ATP-dependent molecular chaperone HSP82 (Candida albicans (strain WO-1) (Yeast), UniProt C4YTQ8); experiment: steroid-induced GRE reporter decrease in yeast – S. cerevisiae, luminescence, Hsp90 inhibitor project, dose response (AID 2400); format: functional, cell-based;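 also: beta-galactosidase luminescence from glucocorticoid response element reporter as proxy for Hsp90 function; inhibitor potency where signal loss means Hsp90 inhibition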
[8] = fluconazole-exposed Candida albicans growth modulators – fluorescence, retest, confirmation (AID 2467); format: functional, cell-based
[9] = molecular target: T3, Endoribonuclease toxin MazF (Escherichia coli K-12, UniProt P0AE70); experiment: substrate-only fluorescence increase artefacts – biochemical, single-stranded RNase substrate, counter-screen for MazEF activator project, dose response (AID 588502); format: functional
[10] = molecular target: T3, Endoribonuclease toxin MazF; experiment: activation of MazEF endoribonuclease cleavage – biochemical, fluorescence, single-stranded RNA substrate, uHTS hits, dose response (AID 588481); format: functional
[11] = molecular target: T4, Corticotropin-releasing factor receptor 2/Corticotropin-releasing factor-binding protein (Homo sapiens, UniProt P24387+Q13324); experiment: activators of CRF receptor 2 with binding protein – uHTS hits, confirmation (AID 602473); format: functional; conditions: read-out: EC50_Mean
T4 sequence (Q13324 whole entry): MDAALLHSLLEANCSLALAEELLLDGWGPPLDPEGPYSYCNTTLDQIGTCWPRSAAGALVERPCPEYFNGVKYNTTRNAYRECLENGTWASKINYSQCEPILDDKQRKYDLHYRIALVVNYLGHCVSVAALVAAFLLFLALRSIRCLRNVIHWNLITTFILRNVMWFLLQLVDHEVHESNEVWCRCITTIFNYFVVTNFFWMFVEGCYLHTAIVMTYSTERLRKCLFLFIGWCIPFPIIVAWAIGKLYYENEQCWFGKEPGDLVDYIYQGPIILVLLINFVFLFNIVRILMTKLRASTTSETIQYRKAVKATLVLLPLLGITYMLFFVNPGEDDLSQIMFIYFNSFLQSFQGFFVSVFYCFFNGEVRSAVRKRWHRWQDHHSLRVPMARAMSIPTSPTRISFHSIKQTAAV
T4 sequence (P24387 whole entry): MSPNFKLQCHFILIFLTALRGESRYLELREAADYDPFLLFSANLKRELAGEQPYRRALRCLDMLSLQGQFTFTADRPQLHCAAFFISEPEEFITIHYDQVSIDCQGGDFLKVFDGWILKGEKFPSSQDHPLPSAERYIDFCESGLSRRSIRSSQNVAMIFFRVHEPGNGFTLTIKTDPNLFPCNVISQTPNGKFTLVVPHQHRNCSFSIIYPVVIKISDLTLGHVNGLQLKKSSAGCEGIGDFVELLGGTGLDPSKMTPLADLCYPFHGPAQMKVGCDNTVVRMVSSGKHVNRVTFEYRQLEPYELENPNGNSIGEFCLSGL

[12] = molecular target: CAAX prenyl protease 1 (Saccharomyces cerevisiae S288c, UniProt P47154); experiment: yeast CAAX protease Ste24 inhibition – biochemical, S. cerevisiae, plate reader, cherry-pick, dose response (AID 488815)
[13] = molecular target: T5, CAAX prenyl protease 2 (Saccharomyces cerevisiae S288c, UniProt Q03530); format: biochemical
T5 sequence (Q03530 whole entry): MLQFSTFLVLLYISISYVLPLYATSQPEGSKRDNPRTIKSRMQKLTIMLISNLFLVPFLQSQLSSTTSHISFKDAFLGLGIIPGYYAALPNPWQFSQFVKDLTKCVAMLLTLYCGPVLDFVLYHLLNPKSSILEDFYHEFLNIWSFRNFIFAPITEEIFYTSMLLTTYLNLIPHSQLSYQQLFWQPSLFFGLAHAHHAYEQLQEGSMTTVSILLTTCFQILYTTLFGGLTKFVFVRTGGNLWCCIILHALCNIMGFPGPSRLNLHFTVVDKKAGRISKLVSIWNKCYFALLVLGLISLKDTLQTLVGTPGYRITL

[14] = loss of viability in HepG2 cells – cell-based, CellTiter-Glo, cherry-picked, cytotoxicity control for Shn3 inhibitor project, dose response (AID 624134); format: functional
[15] = reduction of Shn3 3'UTR-driven luciferase in osteoblasts – cell-based, Clone20 osteoblasts, firefly luciferase, cherry-picked, dose response (AID 624132); format: functional;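 also: firefly luciferase luminescence from reporter carrying the Shn3 3'UTR in osteoblasts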
[16] = test system: INS1; experiment: INS-1E survival protection against cytokine death – cell-based, luminescence, retest, dose response (AID 449756); format: functional; conditions: Rattus norvegicus;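 also: cell death triggered by IL-1 beta plus TNF-alpha plus IFN-gamma mixture; protective hits raise ATP signal compared with cytokine alone wells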
[17] = non-specific 3'UTR reporter inhibition in Clone20-Shn3RL – cell-based, Renilla luciferase, cherry-picked, counter-screen for Shn3 inhibitor project, dose response (AID 624133); format: functional
[18] = molecular target: G-protein coupled receptor 55 (Homo sapiens, UniProt Q9Y2T6); experiment: selective activators of receptor GPR55 – imaging, U2OS cells, beta-arrestin-GFP redistribution, primary screen (AID 1961); format: functional
[19] = cells; format: functional, cell-based
[20] = molecular target: T6, Microphthalmia-associated transcription factor (Homo sapiens, UniProt O75030); experiment: reducers of TRPM1 reporter luminescence, concentration series – cell-based, SK-MEL-5, cherry-picked, set 3, MITF inhibitor project, dose response (AID 493073); format: functional;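 also: SK-MEL-5 melanoma cells with luciferase driven by the MITF target TRPM1 promoter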
T6 sequence (O75030 whole entry): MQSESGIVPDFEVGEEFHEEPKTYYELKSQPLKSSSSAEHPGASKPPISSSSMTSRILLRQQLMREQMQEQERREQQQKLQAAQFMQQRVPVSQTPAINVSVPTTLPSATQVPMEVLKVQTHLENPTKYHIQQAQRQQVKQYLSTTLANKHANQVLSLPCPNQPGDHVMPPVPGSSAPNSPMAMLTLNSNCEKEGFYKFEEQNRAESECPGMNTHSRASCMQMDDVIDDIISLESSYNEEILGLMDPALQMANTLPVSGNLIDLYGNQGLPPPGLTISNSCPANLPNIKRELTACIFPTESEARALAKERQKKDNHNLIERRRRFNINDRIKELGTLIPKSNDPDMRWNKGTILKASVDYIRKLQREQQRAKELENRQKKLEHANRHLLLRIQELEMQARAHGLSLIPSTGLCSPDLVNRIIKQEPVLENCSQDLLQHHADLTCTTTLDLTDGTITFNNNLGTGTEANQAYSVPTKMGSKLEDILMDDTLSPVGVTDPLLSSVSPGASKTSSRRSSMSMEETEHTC

[21] = Trypanosoma cruzi growth suppression in host cells – NIH3T3 host cells, beta-gal luminescence, confirmation (AID 2044); format: functional, cell-based;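 also: intracellular parasites grown in NIH/3T3 mouse fibroblasts as host cells; luminescent beta-galactosidase reporter signal from transgenic T. cruzi replicating inside host cells; inhibitors lower the luminescence signal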
[22] = test system: A-375; experiment: MITF: Counter assay: A375 proliferation Measured in Cell-Based System Using Plate Reader - 2084-03_Inhibitor_Dose_DryPowder_Activity. [Related pubchem assays (depositor defined):AID488944]; format: functional; conditions: Homo sapiens
[23] = cells; format: functional, cell-based; remark: listed apart in the source
[24] = NIH3T3 cell viability loss – ATP luminescence, mouse fibroblasts, counter-screen, dose response (AID 2010); format: functional, cell-based;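 also: cells exposed to compound for about 90 hours before reading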

T3 sequence (P0AE70 whole entry): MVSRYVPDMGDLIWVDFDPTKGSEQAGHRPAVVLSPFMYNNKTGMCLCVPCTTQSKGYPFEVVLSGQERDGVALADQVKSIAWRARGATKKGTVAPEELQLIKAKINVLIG
Sequence of Phosphomannomutase 2 (O15305 whole entry): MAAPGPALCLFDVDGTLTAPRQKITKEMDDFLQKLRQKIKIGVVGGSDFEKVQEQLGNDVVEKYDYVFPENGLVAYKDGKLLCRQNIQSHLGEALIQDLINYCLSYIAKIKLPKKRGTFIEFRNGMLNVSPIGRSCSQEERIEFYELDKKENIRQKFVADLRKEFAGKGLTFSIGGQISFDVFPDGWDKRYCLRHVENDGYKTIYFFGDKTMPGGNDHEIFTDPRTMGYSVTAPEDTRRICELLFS
Sequence of ATP-dependent molecular chaperone HSP82 (C4YTQ8 whole entry): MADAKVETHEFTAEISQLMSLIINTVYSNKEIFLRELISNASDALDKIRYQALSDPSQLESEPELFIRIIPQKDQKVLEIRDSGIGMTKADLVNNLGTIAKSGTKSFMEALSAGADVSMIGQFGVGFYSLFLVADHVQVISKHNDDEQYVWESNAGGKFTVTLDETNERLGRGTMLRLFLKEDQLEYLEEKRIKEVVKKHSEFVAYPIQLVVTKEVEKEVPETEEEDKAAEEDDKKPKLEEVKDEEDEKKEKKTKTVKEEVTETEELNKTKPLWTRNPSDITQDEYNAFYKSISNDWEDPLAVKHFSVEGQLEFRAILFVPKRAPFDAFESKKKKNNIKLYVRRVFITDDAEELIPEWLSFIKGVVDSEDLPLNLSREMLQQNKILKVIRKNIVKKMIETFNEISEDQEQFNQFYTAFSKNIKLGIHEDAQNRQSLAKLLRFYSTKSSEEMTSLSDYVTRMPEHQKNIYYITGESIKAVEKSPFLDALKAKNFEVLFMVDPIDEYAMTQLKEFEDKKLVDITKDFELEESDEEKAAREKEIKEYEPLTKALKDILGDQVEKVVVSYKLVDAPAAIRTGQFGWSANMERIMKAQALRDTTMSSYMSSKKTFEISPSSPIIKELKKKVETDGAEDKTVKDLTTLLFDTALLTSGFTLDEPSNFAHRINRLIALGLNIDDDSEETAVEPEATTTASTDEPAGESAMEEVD
Sequence of CAAX prenyl protease 1 (P47154 whole entry): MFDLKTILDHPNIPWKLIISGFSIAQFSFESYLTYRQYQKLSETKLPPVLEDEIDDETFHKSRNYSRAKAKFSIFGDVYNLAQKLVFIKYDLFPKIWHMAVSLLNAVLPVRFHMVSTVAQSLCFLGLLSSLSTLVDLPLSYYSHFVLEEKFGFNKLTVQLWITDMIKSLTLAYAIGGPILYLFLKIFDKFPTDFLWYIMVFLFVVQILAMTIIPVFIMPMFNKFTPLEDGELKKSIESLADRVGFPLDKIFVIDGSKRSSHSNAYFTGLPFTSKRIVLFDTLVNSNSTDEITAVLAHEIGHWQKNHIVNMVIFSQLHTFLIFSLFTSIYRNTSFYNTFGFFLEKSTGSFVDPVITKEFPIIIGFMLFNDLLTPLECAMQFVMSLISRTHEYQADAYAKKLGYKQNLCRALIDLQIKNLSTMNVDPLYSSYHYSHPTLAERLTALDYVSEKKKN
Sequence of G-protein coupled receptor 55 (Q9Y2T6 whole entry): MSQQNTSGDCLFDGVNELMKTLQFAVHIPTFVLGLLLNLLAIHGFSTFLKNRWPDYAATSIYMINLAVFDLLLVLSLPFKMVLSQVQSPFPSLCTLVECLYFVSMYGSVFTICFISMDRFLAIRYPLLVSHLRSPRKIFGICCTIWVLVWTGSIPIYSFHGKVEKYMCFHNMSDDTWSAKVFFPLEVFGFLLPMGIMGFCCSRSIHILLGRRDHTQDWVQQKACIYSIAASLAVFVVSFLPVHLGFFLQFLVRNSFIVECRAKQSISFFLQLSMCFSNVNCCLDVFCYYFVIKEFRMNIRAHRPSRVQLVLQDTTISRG

In the case of `Clc1nss/c1=N\c1ccc2ncccc2c1`, the IC50 [1] is reported as 23.6 µM (active) and the IC50 [2] is reported as > 100 µM (inactive).
With `Cc1oc2c(F)c(F)c(F)c(F)c2c1S(=O)(=O)Nc1cccc(C(F)(F)F)c1` the EC50 [3] was > 160 µM (inconclusive), the EC50 [4] was 9.76 µM (active) and the EC50 [5] was 18.1 µM (active). For the same molecule, the AC50 [6] was 2.3 µM (active), the EC50 [7] was 4.6 µM (active) and the EC50 [8] was 0.859 µM (active).
With `CC1CCN(c2ccc3c(c2)S(=O)(=O)c2cccc(C(=O)NCc4ccc(F)cc4)c2C3=O)CC1` the EC50 [9] was 38 µM (inactive), the EC50 [10] was > 99 µM (inactive) and the EC50 [11] was 5.16 µM (active).
With `COc1ccc(C2/C=C\CN(C(=O)c3ccc(C)cc3)[C@H](Cc3ccccc3)C(=O)N2Cc2ccc(F)cc2)cc1` (stereo not given in full) the AC50 [12] was 37.3 µM (active), the AC50 [13] was 35.1 µM (active) and the AC50 [14] was > 70 µM (inactive). For the same molecule, the AC50 [15] was 0.772 µM (active), the AC50 [16] was 7.14 µM (active) and the AC50 [17] was 18.1 µM (active). For the same molecule, the EC50 [18] was > 32 µM (inactive).
For `COc1cnc(-c2ccccn2)nc1NC(C)C`, the EC50 [3] was 23.1 µM (active), the EC50 [19] was 19.7 µM (active) and the AC50 [14] was 5.96 µM (active). The AC50 [20] was 12.4 µM (active), the AC50 [15] was 2.81 µM (active) and the EC50 [21] was 2.05 µM (active). The AC50 [22] was 37.1 µM (active), the AC50 [16] was 7.93 µM (active) and the EC50 [23] was > 350 µM (not active). The AC50 [17] was 3.16 µM (active), the EC50 [8] was > 38 µM (not active) and the EC50 [24] was 3.77 µM (active).

— ChEMBL document CHEMBL1201862, “PubChem BioAssay data set” (2004)
